Format in all cases: functional
The test system of one assay is Cercospora beticola. Kind of assay: Fungicidal activity against Cercospora beticola Be-2-6 assessed as mycelial growth inhibition at 25 mg/L after 7 days. The conditions noted are these: Be-2-6, 168 h, read-out: GI.
The subject of the next assay is Fusarium graminearum. As to the kind of experiment: Fungicidal activity against Fusarium graminearum H3 assessed as mycelial growth inhibition at 25 mg/L after 3 days. The conditions noted are these: H3, 72 h, read-out: GI.
The subject of a further assay is Microdochium nivale. Kind of assay: Fungicidal activity against Microdochium nivale IFO-7432 assessed as mycelial growth inhibition at 25 mg/L after 3 days. The conditions noted are these: IFO-7432, 72 h, read-out: GI.
The test system of the next assay is Zymoseptoria tritici. Kind of assay: Fungicidal activity against Zymoseptoria tritici S3 assessed as mycelial growth inhibition at 25 mg/L after 14 days. To be noted: S3, 336 h, read-out: GI.
In a further assay the test system is Rhynchosporium secalis. As to the kind of experiment: Fungicidal activity against Rhynchosporium secalis IFO-5290 assessed as mycelial growth inhibition at 25 mg/L after 14 days. The conditions noted are these: IFO-5290, 336 h, read-out: GI.
In the next assay the test system is Rhizoctonia solani. Kind of assay: Fungicidal activity against Rhizoctonia solani ET0007 assessed as mycelial growth inhibition at 25 mg/L after 1 day. To be noted: ET0007, 24 h, read-out: GI.
The next assay deals with Gaeumannomyces graminis. As to the kind of experiment: Fungicidal activity against Gaeumannomyces graminis MAFF305168 assessed as mycelial growth inhibition at 25 mg/L after 1 day. To be noted: MAFF305168, 24 h, read-out: GI.
In the next assay the test system is Alternaria alternata. As to the kind of experiment: Fungicidal activity against Alternaria alternata APS-38 assessed as mycelial growth inhibition at 25 mg/L after 3 days. To be noted: APS-38, 72 h, read-out: GI.
Another assay relates to Pyrenophora graminea. As to the kind of experiment: Fungicidal activity against Pyrenophora graminea IFO-7507 assessed as mycelial growth inhibition at 25 mg/L after 3 days. To be noted: IFO-7507, 72 h, read-out: GI.

For `CCn1oc(C)cc1=O`, the inhibition of growth at 25 µg/mL was determined as 2% in the assay on Cercospora beticola; 4% with Fusarium graminearum; 0% with Microdochium nivale; 0% in the assay with Zymoseptoria tritici; 13% in the assay with Rhynchosporium secalis; 0% in the assay on Rhizoctonia solani. The inhibition of growth at 25 µg/mL in the assay on Gaeumannomyces graminis came to 3%; in the assay on Alternaria alternata, 21%; with Pyrenophora graminea it was 6%.

As for `CCCn1oc(C)cc1=O`, the inhibition of growth at 25 µg/mL in the assay on Cercospora beticola turned out to be 4%; in the assay with Fusarium graminearum it was 8%; in the assay on Microdochium nivale, 4%; with Zymoseptoria tritici it was 0%; in the assay on Rhynchosporium secalis, 2%; in the assay on Rhizoctonia solani, 15%. Further, the results for the inhibition of growth at 25 µg/mL with Gaeumannomyces graminis, with Alternaria alternata and in the assay on Pyrenophora graminea were 3%, 11% and 16%, respectively.

On to `Cc1cc(=O)n(Cc2ccccc2)o1`, for which the inhibition of growth at 25 µg/mL in the assay on Cercospora beticola was 4%; in the assay on Fusarium graminearum, 6%; in the assay with Microdochium nivale it was 4%; with Zymoseptoria tritici it was 6%; in the assay with Rhynchosporium secalis, 0%; in the assay on Rhizoctonia solani, 10%. Moreover, the inhibition of growth at 25 µg/mL in the assay on Gaeumannomyces graminis worked out at 0%; with Alternaria alternata, 9%; in the assay with Pyrenophora graminea, 46%.

In the case of `CC(=O)n1oc(C)cc1=O`, the inhibition of growth at 25 µg/mL amounted to 92% with Cercospora beticola; 50% with Fusarium graminearum; 79% in the assay with Microdochium nivale; 98% in the assay with Zymoseptoria tritici; 100% with Rhynchosporium secalis; 26% in the assay on Rhizoctonia solani. Moreover, the figures for the inhibition of growth at 25 µg/mL with Gaeumannomyces graminis, in the assay on Alternaria alternata and in the assay on Pyrenophora graminea were 72%, 90% and 72%, respectively.

Take `CCC(=O)n1oc(C)cc1=O`: the inhibition of growth at 25 µg/mL with Cercospora beticola was determined as 94%; in the assay with Fusarium graminearum, 32%; with Microdochium nivale it was 68%; with Zymoseptoria tritici, 69%; in the assay with Rhynchosporium secalis it was 100%; in the assay with Rhizoctonia solani, 22%. The inhibition of growth at 25 µg/mL with Gaeumannomyces graminis turned out to be 50%; with Alternaria alternata, 87%; in the assay with Pyrenophora graminea, 88%.

For the compound `Cc1cc(=O)n(C(=O)C(C)(C)C)o1`, the inhibition of growth at 25 µg/mL in the assay with Cercospora beticola amounted to 85%; with Fusarium graminearum, 40%; with Microdochium nivale it was 82%; with Zymoseptoria tritici, 64%; in the assay on Rhynchosporium secalis it was 100%; in the assay with Rhizoctonia solani it was 43%. In addition, the inhibition of growth at 25 µg/mL in the assay on Gaeumannomyces graminis came out at 83%; in the assay on Alternaria alternata, 84%; with Pyrenophora graminea, 95%.

Turning to `Cc1cc(=O)n(C(=O)CCl)o1`, the inhibition of growth at 25 µg/mL is 94% with Cercospora beticola; 28% in the assay with Fusarium graminearum; 72% with Microdochium nivale; 70% with Zymoseptoria tritici; 100% with Rhynchosporium secalis; 19% in the assay with Rhizoctonia solani. Further, the inhibition of growth at 25 µg/mL in the assay with Gaeumannomyces graminis is 66%; in the assay with Alternaria alternata, 81%; in the assay on Pyrenophora graminea it was 89%.

With `COCC(=O)n1oc(C)cc1=O`, the inhibition of growth at 25 µg/mL came out at 91% with Cercospora beticola; 37% with Fusarium graminearum; 45% in the assay with Microdochium nivale; 63% with Zymoseptoria tritici; 100% in the assay with Rhynchosporium secalis; 68% in the assay on Rhizoctonia solani. In addition, the inhibition of growth at 25 µg/mL stood at 54% in the assay on Gaeumannomyces graminis, 62% in the assay with Alternaria alternata and 82% in the assay with Pyrenophora graminea.

With `Cc1cc(=O)n(C(=O)CC(C)(C)C)o1`, the inhibition of growth at 25 µg/mL in the assay with Cercospora beticola stood at 93%; in the assay with Fusarium graminearum, 47%; in the assay on Microdochium nivale, 76%; in the assay with Zymoseptoria tritici, 70%; in the assay with Rhynchosporium secalis, 96%; in the assay with Rhizoctonia solani, 71%. The inhibition of growth at 25 µg/mL in the assay on Gaeumannomyces graminis was 97%; in the assay on Alternaria alternata, 64%; in the assay with Pyrenophora graminea it was 76%.

In the case of `Cc1cc(=O)n(C(=O)CCC(F)(F)F)o1`, the inhibition of growth at 25 µg/mL in the assay on Cercospora beticola turned out to be 89%; in the assay on Fusarium graminearum, 32%; in the assay with Microdochium nivale, 54%; with Zymoseptoria tritici, 65%; in the assay on Rhynchosporium secalis, 98%; with Rhizoctonia solani it was 57%. In addition, the results for the inhibition of growth at 25 µg/mL in the assay on Gaeumannomyces graminis, in the assay on Alternaria alternata and with Pyrenophora graminea were 60%, 61% and 46%, respectively.

For the compound `CSCCC(=O)n1oc(C)cc1=O`, the inhibition of growth at 25 µg/mL in the assay on Cercospora beticola stood at 92%; in the assay on Fusarium graminearum it was 37%; with Microdochium nivale it was 50%; in the assay on Zymoseptoria tritici, 67%; in the assay with Rhynchosporium secalis, 99%; in the assay with Rhizoctonia solani, 62%. Further, the inhibition of growth at 25 µg/mL in the assay with Gaeumannomyces graminis came out at 58%; in the assay with Alternaria alternata, 64%; with Pyrenophora graminea, 76%.

For `Cc1cc(=O)n(C(=O)Cc2ccccc2)o1`, the inhibition of growth at 25 µg/mL with Cercospora beticola stood at 84%; with Fusarium graminearum, 32%; in the assay on Microdochium nivale it was 51%; in the assay with Zymoseptoria tritici, 83%; with Rhynchosporium secalis, 99%; in the assay with Rhizoctonia solani, 5%. Also, the inhibition of growth at 25 µg/mL was 66% with Gaeumannomyces graminis, 67% with Alternaria alternata and 71% in the assay on Pyrenophora graminea.

Take `Cc1cc(=O)n(C(=O)C(C)c2ccccc2)o1` (stereo unspecified): the inhibition of growth at 25 µg/mL in the assay on Cercospora beticola was determined as 86%; with Fusarium graminearum, 33%; with Microdochium nivale, 55%; with Zymoseptoria tritici it was 83%; in the assay on Rhynchosporium secalis it was 99%; with Rhizoctonia solani it was 20%. Moreover, the values for the inhibition of growth at 25 µg/mL in the assay with Gaeumannomyces graminis, in the assay with Alternaria alternata and with Pyrenophora graminea were 5%, 48% and 74%, respectively.

In the case of `Cc1cc(=O)n(C(=O)C(C)(C)Oc2ccc(Cl)cc2)o1`, the inhibition of growth at 25 µg/mL is 74% in the assay with Cercospora beticola; 6% in the assay on Fusarium graminearum; 23% in the assay with Microdochium nivale; 73% in the assay with Zymoseptoria tritici; 100% in the assay with Rhynchosporium secalis; 3% in the assay on Rhizoctonia solani. In addition, the inhibition of growth at 25 µg/mL was found to be 29% in the assay with Gaeumannomyces graminis, 53% in the assay with Alternaria alternata and 81% in the assay with Pyrenophora graminea.

On to `Cc1cc(=O)n(C(=O)c2ccccc2I)o1`, for which the inhibition of growth at 25 µg/mL in the assay on Cercospora beticola was found to be 88%; with Fusarium graminearum, 36%; with Microdochium nivale it was 61%; in the assay with Zymoseptoria tritici it was 47%; in the assay on Rhynchosporium secalis, 100%; in the assay on Rhizoctonia solani it was 57%. Besides, the results for the inhibition of growth at 25 µg/mL in the assay on Gaeumannomyces graminis, in the assay on Alternaria alternata and in the assay on Pyrenophora graminea were 25%, 33% and 92%, respectively.

`Cc1cc(C)c(C(=O)n2oc(C)cc2=O)c(C)c1`: the inhibition of growth at 25 µg/mL with Cercospora beticola amounted to 11%; with Fusarium graminearum, 10%; in the assay on Microdochium nivale it was 4%; in the assay with Zymoseptoria tritici, 10%; with Rhynchosporium secalis it was 0%; in the assay on Rhizoctonia solani, 3%. In addition, the inhibition of growth at 25 µg/mL in the assay on Gaeumannomyces graminis stood at 22%; in the assay on Alternaria alternata, 22%; in the assay on Pyrenophora graminea, 90%.

Regarding `Cc1cc(=O)n(C(=O)c2c(F)c(F)c(F)c(F)c2F)o1`, the inhibition of growth at 25 µg/mL with Cercospora beticola stood at 90%; in the assay with Fusarium graminearum, 22%; in the assay on Microdochium nivale, 36%; with Zymoseptoria tritici it was 56%; in the assay with Rhynchosporium secalis, 100%; in the assay with Rhizoctonia solani, 5%. In addition, the values for the inhibition of growth at 25 µg/mL in the assay with Gaeumannomyces graminis, in the assay on Alternaria alternata and with Pyrenophora graminea were 0%, 60% and 87%, respectively.

On to `Cc1cc(=O)n(C(=O)/C=C/c2ccccc2)o1`, for which the inhibition of growth at 25 µg/mL was 91% in the assay on Cercospora beticola; 26% with Fusarium graminearum; 59% in the assay on Microdochium nivale; 62% with Zymoseptoria tritici; 100% with Rhynchosporium secalis; 92% in the assay on Rhizoctonia solani. The results for the inhibition of growth at 25 µg/mL with Gaeumannomyces graminis, in the assay on Alternaria alternata and in the assay on Pyrenophora graminea were 0%, 67% and 90%, respectively.

For `Cc1cc(=O)n(C(=O)/C=C/c2ccc(Cl)cc2)o1`, the inhibition of growth at 25 µg/mL amounted to 77% with Cercospora beticola; 43% in the assay with Fusarium graminearum; 45% in the assay with Microdochium nivale; 77% in the assay on Zymoseptoria tritici; 100% in the assay with Rhynchosporium secalis; 66% in the assay with Rhizoctonia solani. For the same compound, the inhibition of growth at 25 µg/mL with Gaeumannomyces graminis came to 20%; with Alternaria alternata, 54%; in the assay on Pyrenophora graminea it was 77%.
